Assay results published in patent US10590086B2, “Pharmaceutical compound” (IOmet Pharma Ltd., priority 2014, dated 2020).

What was measured:
[1] = target: T1, IDO (Homo sapiens, UniProt P14902); experiment: SKOV3 kynurenine cell-based assay (IDO induced by IFN-γ); design: IDO expression was induced in the SKOV3 cells by the addition of 500 ng/ml IFN-γ; endogenous in cells; host or cells: SKOV3 (human ovarian adenocarcinoma), induced with IFN-γ; settings: SKOV3 human ovarian adenocarcinoma cells, 500 ng/ml IFN-γ, 48 hours, 500 μM L-tryptophan; read-out: SKOV3 Kynurenine cell based assay pIC50 (converted)
Procedure, shortened: (§1)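 Cellular kynurenine production, TDO via A172 glioblastoma and IDO via IFN-γ-stimulated SKOV3 ovarian adenocarcinoma cells, was quantified after 48 hours' compound treatment in 500 μM L-tryptophan medium, using Erhlich's reagent and absorbance at 490 nm.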

[2] = target: T2, TDO (Homo sapiens, UniProt P48775); experiment: A172 kynurenine cell-based assay; design: This assay utilised cancer cells which expressed either TDO or IDO; endogenous in cells; host or cells: A172 (human glioblastoma); settings: A172 human glioblastoma cells, 48 hours, 500 μM L-tryptophan; read-out: A172 Kynurenine cell based assay pIC50 (converted)
Procedure, shortened: as §1

[3] = target: T2, TDO; experiment: hTDO biochemical coupled assay; settings: 330 μM L-tryptophan, 17 minutes, room temperature; read-out: hTDO biochemical assay pIC50 (converted)
[4] = target: T1, IDO; experiment: hIDO biochemical coupled assay; settings: 45 μM L-tryptophan, 17 minutes, room temperature; read-out: hIDO biochemical assay pIC50 (converted)

T2 sequence (P48775 whole entry): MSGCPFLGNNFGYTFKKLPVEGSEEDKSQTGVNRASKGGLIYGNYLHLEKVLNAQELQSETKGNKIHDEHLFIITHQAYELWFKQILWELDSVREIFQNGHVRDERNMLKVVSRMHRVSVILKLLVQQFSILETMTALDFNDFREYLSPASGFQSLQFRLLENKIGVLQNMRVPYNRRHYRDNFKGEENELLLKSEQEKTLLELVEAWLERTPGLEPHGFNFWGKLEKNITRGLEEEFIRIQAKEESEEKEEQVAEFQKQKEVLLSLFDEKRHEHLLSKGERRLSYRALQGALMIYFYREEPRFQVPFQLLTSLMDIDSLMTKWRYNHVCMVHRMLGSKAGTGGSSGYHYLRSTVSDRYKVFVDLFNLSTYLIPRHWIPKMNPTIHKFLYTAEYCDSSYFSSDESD
T1 sequence (P14902 whole entry): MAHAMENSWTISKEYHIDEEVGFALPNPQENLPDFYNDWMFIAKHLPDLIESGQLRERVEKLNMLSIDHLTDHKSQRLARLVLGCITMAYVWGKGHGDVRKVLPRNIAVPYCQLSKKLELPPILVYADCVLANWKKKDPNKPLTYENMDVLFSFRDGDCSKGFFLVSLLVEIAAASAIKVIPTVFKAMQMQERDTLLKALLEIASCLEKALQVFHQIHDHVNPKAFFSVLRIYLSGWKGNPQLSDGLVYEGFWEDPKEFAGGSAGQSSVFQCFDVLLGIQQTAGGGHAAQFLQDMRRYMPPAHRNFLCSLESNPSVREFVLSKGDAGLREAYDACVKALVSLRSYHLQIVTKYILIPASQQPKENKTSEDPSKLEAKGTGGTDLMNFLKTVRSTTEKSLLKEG

CS(=O)(=O)Nc1ccc(C2CCN(c3cc(Cl)cc4[nH]ncc34)CC2)cc1 [Compound 437]
IC50 [1]: < 3.16 µM
IC50 [2]: < 3.16 µM
IC50 [3]: < 3.16 µM
IC50 [4]: 3.24 to 31.6 µM

O=C1N[C@H]2CC[C@@H]1CN(c1cc(Br)cc3[nH]ncc13)C2 [Compound 438]
IC50 [1]: > 100 µM
IC50 [2]: < 3.16 µM
IC50 [3]: < 3.16 µM
IC50 [4]: 3.24 to 31.6 µM

O=C1N[C@H]2CC[C@@H]1CN(c1cc(C(F)(F)F)cc3[nH]ncc13)C2 [Compound 439]
IC50 [1]: > 100 µM
IC50 [2]: < 3.16 µM
IC50 [3]: < 3.16 µM
IC50 [4]: 3.24 to 31.6 µM

CNC(=O)c1ccc(C2CCN(c3cc(Cl)cc4[nH]ncc34)CC2)cc1 [Compound 440]
IC50 [1]: 3.24 to 31.6 µM
IC50 [2]: < 3.16 µM
IC50 [3]: < 3.16 µM
IC50 [4]: 3.24 to 31.6 µM

CC(=O)Nc1ccc(C2CCN(c3cc(Cl)cc4[nH]ncc34)CC2)cc1 [Compound 441]
IC50 [1]: < 3.16 µM
IC50 [2]: < 3.16 µM
IC50 [3]: < 3.16 µM
IC50 [4]: > 100 µM

Clc1cc(N2CCC(c3cscn3)CC2)c2cn[nH]c2c1 [Compound 442]
IC50 [1]: > 100 µM
IC50 [2]: < 3.16 µM
IC50 [3]: < 3.16 µM
IC50 [4]: 3.24 to 31.6 µM

O=C1NC(=O)C(C2CCN(c3cc(Cl)cc4[nH]ncc34)CC2)N1 (stereo not shown) [Compound 443]
IC50 [1]: > 100 µM
IC50 [2]: < 3.16 µM
IC50 [3]: < 3.16 µM
IC50 [4]: > 100 µM

CN1C(=O)NC(C2CCN(c3cc(Cl)cc4[nH]ncc34)CC2)C1=O (stereo not shown) [Compound 444]
IC50 [1]: > 100 µM
IC50 [2]: < 3.16 µM
IC50 [3]: < 3.16 µM
IC50 [4]: > 100 µM

CNC(=O)c1ccc(N2CCN(c3cc(Cl)cc4[nH]ncc34)CC2)cc1 [Compound 445]
IC50 [1]: < 3.16 µM
IC50 [2]: < 3.16 µM
IC50 [3]: < 3.16 µM
IC50 [4]: > 100 µM

CC(=O)NCC1(C)CN(c2cc(Cl)cc3[nH]ncc23)C1 [Compound 446]
IC50 [1]: < 3.16 µM
IC50 [2]: < 3.16 µM
IC50 [3]: < 3.16 µM
IC50 [4]: > 100 µM

CN1C(=O)[C@@H]2CC[C@H]1CN(c1cc(C(F)(F)F)cc3[nH]ncc13)C2 [Compound 447]
IC50 [1]: > 100 µM
IC50 [2]: < 3.16 µM
IC50 [3]: < 3.16 µM
IC50 [4]: 3.24 to 31.6 µM

Clc1cc(N2C[C@H]3CC[C@@H](C2)NC3)c2cn[nH]c2c1 [Compound 448]
IC50 [1]: > 100 µM
IC50 [2]: < 3.16 µM
IC50 [3]: < 3.16 µM
IC50 [4]: 3.24 to 31.6 µM

CN(C1CCN(c2cc(Cl)cc3[nH]ncc23)CC1(C)C)S(C)(=O)=O (stereo not shown) [Compound 449]
IC50 [1]: 3.24 to 31.6 µM
IC50 [2]: < 3.16 µM
IC50 [3]: < 3.16 µM
IC50 [4]: 3.24 to 31.6 µM

CC(=O)N(C)C1CCN(c2cc(Cl)cc3[nH]ncc23)CC1(C)C (stereo not shown) [Compound 450]
IC50 [1]: < 3.16 µM
IC50 [2]: < 3.16 µM
IC50 [3]: < 3.16 µM
IC50 [4]: < 3.16 µM

Clc1cc(N2CCC(N3CCOCC3)CC2)c2cn[nH]c2c1 [Compound 451]
IC50 [1]: > 100 µM
IC50 [2]: < 3.16 µM
IC50 [3]: < 3.16 µM
IC50 [4]: 32.4 to 100 µM

CC(=O)N1CCC2(CC1)CN(c1cc(Cl)cc3[nH]ncc13)C2 [Compound 452]
IC50 [1]: < 3.16 µM
IC50 [2]: < 3.16 µM
IC50 [3]: < 3.16 µM
IC50 [4]: > 100 µM

CS(=O)(=O)N1CCN(C2CCN(c3cc(Cl)cc4[nH]ncc34)CC2)CC1 [Compound 453]
IC50 [1]: > 100 µM
IC50 [2]: < 3.16 µM
IC50 [3]: < 3.16 µM
IC50 [4]: 3.24 to 31.6 µM

CC(=O)N1CCN(c2cc(Cl)cc3[nH]ncc23)CC1CO (stereo not shown) [Compound 454]
IC50 [1]: > 100 µM
IC50 [2]: < 3.16 µM
IC50 [3]: < 3.16 µM
IC50 [4]: 32.4 to 100 µM

CN1C(=O)[C@@H]2CC[C@H]1CN(c1cc(Br)cc3[nH]ncc13)C2 [Compound 455]
IC50 [1]: > 100 µM
IC50 [2]: < 3.16 µM
IC50 [3]: < 3.16 µM
IC50 [4]: 3.24 to 31.6 µM
